Test results reported in US10793563B2, “GCN2 inhibitors and uses thereof” (Merck Patent GmbH, priority 2018, dated 2020).
pIC50, pKi: −log10 of the molar value.

Experiments:
GCN2 kinase = GCN2 kinase (Homo sapiens (Human), UniProt Q9P2K8); assay: GCN2 Enzyme Inhibition Assay (Transcreener ADP2 fluorescence polarization); assay type: biochemical; details: 280 μM ATP, 200 μM (RS)7 peptide, 4 nM GCN2, 25° C.; for pKi: Ki(app)
Method in brief: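 Transcreener ADP2 fluorescence polarization detection of ADP from 4 nM GCN2 with (RS)7 substrate in 25 mM Tris-HCl pH 7.5, 50 mM NaCl, 10 mM MgCl2, 1 mM DTT. Compound pre-incubated with enzyme 10 min at 25 °C; reaction started by ATP, run 1 h at 25 °C. IC50 and Ki(app) by tight-binding fit.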

[1] = target: intracellular GCN2 (phosphorylation of the GCN2 substrate eIF2α) (Homo sapiens (Human), UniProt Q9P2K8); assay: GCN2 Cellular Inhibition Assay (AlphaScreen SureFire P-eIF2α Ser51, borrelidin-treated U2OS cells); assay type: cell-based; details: 10 μM borrelidin, 1 h, phosphorylated eIF2α Ser51, read-out: GCN2 Biomarker (IC50)
Method in brief: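 U2OS cells adhered overnight, then given compound (top 40 μM, 4-fold serial dilutions) plus 10 μM borrelidin for 1 h at 37 °C. Lysates assayed for eIF2α phospho-Ser51 by AlphaScreen SureFire; % inhibition versus borrelidin-only wells.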

Sequence of intracellular GCN2 (phosphorylation of the GCN2 substrate eIF2α) (Q9P2K8 whole entry): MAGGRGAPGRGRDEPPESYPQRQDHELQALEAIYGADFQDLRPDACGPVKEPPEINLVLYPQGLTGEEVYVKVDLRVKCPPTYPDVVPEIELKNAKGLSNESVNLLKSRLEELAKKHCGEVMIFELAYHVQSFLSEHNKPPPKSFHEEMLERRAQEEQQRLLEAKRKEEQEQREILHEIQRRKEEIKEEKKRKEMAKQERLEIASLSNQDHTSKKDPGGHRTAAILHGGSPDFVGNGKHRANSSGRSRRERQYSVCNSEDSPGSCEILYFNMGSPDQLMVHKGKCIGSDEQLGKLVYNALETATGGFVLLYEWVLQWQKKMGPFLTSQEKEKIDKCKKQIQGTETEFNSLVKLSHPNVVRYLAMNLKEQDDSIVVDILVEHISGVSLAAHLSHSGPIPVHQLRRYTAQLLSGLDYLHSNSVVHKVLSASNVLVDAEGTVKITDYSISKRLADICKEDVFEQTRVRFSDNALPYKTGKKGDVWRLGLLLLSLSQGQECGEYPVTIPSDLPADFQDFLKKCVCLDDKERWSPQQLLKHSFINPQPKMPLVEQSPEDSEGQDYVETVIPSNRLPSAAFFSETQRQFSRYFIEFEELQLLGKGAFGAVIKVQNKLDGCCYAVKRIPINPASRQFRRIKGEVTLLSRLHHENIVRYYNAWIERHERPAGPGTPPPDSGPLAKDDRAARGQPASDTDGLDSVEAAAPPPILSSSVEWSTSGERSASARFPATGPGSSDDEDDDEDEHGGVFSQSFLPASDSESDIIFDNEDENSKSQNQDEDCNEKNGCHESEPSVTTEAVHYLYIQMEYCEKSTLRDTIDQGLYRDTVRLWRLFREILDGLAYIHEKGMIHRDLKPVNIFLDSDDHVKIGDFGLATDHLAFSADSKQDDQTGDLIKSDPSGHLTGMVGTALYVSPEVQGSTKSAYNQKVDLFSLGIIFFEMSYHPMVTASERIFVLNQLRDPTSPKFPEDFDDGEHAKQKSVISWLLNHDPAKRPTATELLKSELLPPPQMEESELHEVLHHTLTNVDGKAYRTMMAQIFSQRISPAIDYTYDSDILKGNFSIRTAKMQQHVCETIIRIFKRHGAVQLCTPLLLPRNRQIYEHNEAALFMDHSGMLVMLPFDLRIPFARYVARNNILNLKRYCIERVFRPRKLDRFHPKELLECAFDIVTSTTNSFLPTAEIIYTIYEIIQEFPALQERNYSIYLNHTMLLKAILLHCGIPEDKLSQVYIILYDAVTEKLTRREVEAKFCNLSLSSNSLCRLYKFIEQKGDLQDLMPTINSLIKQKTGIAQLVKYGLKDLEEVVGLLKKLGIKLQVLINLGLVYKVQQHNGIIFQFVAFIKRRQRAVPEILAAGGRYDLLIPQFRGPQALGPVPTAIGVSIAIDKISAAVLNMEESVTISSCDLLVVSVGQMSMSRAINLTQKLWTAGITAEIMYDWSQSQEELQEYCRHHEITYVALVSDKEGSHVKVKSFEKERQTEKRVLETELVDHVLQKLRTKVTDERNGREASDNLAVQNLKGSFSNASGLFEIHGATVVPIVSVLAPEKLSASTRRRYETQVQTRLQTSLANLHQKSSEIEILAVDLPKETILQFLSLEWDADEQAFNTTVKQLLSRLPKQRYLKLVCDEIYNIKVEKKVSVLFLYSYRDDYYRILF
Sequence of GCN2 kinase (Q9P2K8 whole entry): as above

| SMILES | pKi (GCN2 kinase) | pIC50 [1] | pIC50 (GCN2 kinase) |
| --- | --- | --- | --- |
| CC1CC(CS(C)(=N)=O)C(C)N(c2ccnc(-c3cnc4ccc(Cl)cn34)n2)C1 (centres unmarked) [I-47, ((1-(2-(6-Chloroimidazo[1,2-a]pyridin-3-yl)pyrimidin-4-yl)-2,5-dimethylpiperidin-3-yl)methyl)(imino)(methyl)-λ^6-sulfanone] | > 8.00 | 5.30 to 6.30 | – |
| Cc1[nH]ncc1C1CC(F)CN(c2ccnc(-c3cnc4cc(F)c(Cl)cn34)n2)C1 (centres unmarked) [I-426, 6-chloro-7-fluoro-3-(4-(3-fluoro-5-(5-methyl-1H-pyrazol-4-yl)piperidin-1-yl)pyrimidin-2-yl)imidazo[1,2-a]pyridine] | – | 5.30 to 6.30 | 7.00 to 8.00 |
| C[C@@H]1C[C@@H](NC(=O)OC(C)(C)C)CN(c2ccnc(-c3cnc4ccc(Cl)cn34)n2)C1 [I-252, tert-butyl ((3R,5R)-1-(2-(6-chloroimidazo[1,2-a]pyridin-3-yl)pyrimidin-4-yl)-5-methylpiperidin-3-yl)carbamate] | – | 5.30 to 6.30 | 6.00 to 7.00 |
| CS(=N)(=O)C[C@H]1CCCN(c2ccnc(-c3cnc4ccc(Cl)cn34)n2)C1 (stereo in doubt) [I-21, 6-Chloro-3-(4-(3-((methylsulfonimidoyl)methyl)piperidin-1-yl)pyrimidin-2-yl)imidazo[1,2-a]pyridine] | 7.00 to 8.00 | 5.30 to 6.30 | – |
| NS(=O)(=O)c1ccc2ncc(-c3nccc(N4CCCC(c5cn[nH]c5)C4)n3)n2c1 (centres unmarked) [I-320, 3-(4-(3-(1H-pyrazol-4-yl)piperidin-1-yl)pyrimidin-2-yl)imidazo[1,2-a]pyridine-6-sulfonamide] | – | 5.30 to 6.30 | 7.00 to 8.00 |
| O=C(CCn1ccnc1)N1CCN(c2ccnc(-c3cnc4ccc(C(F)(F)F)cn34)n2)CC1c1cn[nH]c1 (centres unmarked) [I-422, 1-(2-(1H-pyrazol-4-yl)-4-(2-(6-(trifluoromethyl)imidazo[1,2-a]pyridin-3-yl)pyrimidin-4-yl)piperazin-1-yl)-3-(1H-imidazol-1-yl)propan-1-one] | – | < 5.30 | 7.00 to 8.00 |
| O=C(c1cnn(C2COC2)c1)N1CCN(c2ccnc(-c3cnc4ccc(C(F)(F)F)cn34)n2)CC1c1cn[nH]c1 (centres unmarked) [I-417, (2-(1H-pyrazol-4-yl)-4-(2-(6-(trifluoromethyl)imidazo[1,2-a]pyridin-3-yl)pyrimidin-4-yl)piperazin-1-yl)(1-(oxetan-3-yl)-1H-pyrazol-4-yl)methanone] | – | < 5.30 | 6.00 to 7.00 |
| C[C@@H]1C[C@H](N=S(C)(C)=O)CN(c2nccc(-c3cnc4cc(Cl)c(Cl)cn34)n2)C1 [I-244, (((3 S,5R)-1-(4-(6,7-dichloroimidazo[1,2-a]pyridin-3-yl)pyrimidin-2-yl)-5-methylpiperidin-3-yl)imino)dimethyl-λ6-sulfanone] | – | 5.30 to 6.30 | 7.00 to 8.00 |
| FC(F)(F)c1ccc2ncc(-c3nccc(N4CCN(C[C@H]5CC56CCOCC6)[C@@H](c5cn[nH]c5)C4)n3)n2c1 [I-521, 3-(4-((S)-4-(((S)-6-oxaspiro[2.5]octan-1-yl)methyl)-3-(1H-pyrazol-4-yl)piperazin-1-yl)pyrimidin-2-yl)-6-(trifluoromethyl)imidazo[1,2-a]pyridine] | – | > 6.30 | > 8.00 |
| Cc1[nH]ncc1C1CN(c2ccnc(-c3cnc4ccc(Cl)cn34)n2)CC(C)N1 (centres unmarked) [I-267, 6-chloro-3-(4-(3-methyl-5-(5-methyl-1H-pyrazol-4-yl)piperazin-1-yl)pyrimidin-2-yl)imidazo[1,2-a]pyridine] | – | 5.30 to 6.30 | 7.00 to 8.00 |
| C[C@@H]1CN(c2nccc(-c3cnc4ccc(Cl)cn34)n2)C[C@@H](c2cn[nH]c2)O1 [I-251, (2R,6R)-4-(4-(6-chloroimidazo[1,2-a]pyridin-3-yl)pyrimidin-2-yl)-2-methyl-6-(1H-pyrazol-4-yl)morpholine] | – | 5.30 to 6.30 | 7.00 to 8.00 |

Next, values leading:

| pKi (GCN2 kinase) | pIC50 [1] | pIC50 (GCN2 kinase) | SMILES |
| --- | --- | --- | --- |
| – | 5.30 to 6.30 | 7.00 to 8.00 | CC(O)C(=O)N1CCN(c2ccnc(-c3cnc4ccc(C(F)(F)F)cn34)n2)CC1c1cn[nH]c1 (centres unmarked) [I-420, 1-(2-(1H-pyrazol-4-yl)-4-(2-(6-(trifluoromethyl)imidazo[1,2-a]pyridin-3-yl)pyrimidin-4-yl)piperazin-1-yl)-2-hydroxypropan-1-one] |
| – | 5.30 to 6.30 | 7.00 to 8.00 | NC(=O)[C@H]1CCCN(c2ncc(F)c(-c3cnc4ccc(C(F)(F)F)cn34)n2)C1 [I-219, (S)-1-(5-fluoro-4-(6-(trifluoromethyl)imidazo[1,2-a]pyridin-3-yl)pyrimidin-2-yl)piperidine-3-carboxamide] |
| – | > 6.30 | 6.00 to 7.00 | COCCn1cc([C@@H]2C[C@@H](C)CN(c3nccc(-c4cnc5ccc(C(F)(F)F)cn45)n3)C2)cn1 [I-145, 3-(2-((3S,5R)-3-(1-(2-methoxyethyl)-1H-pyrazol-4-yl)-5-methylpiperidin-1-yl)pyrimidin-4-yl)-6-(trifluoromethyl)imidazo[1,2-a]pyridine] |
| – | > 6.30 | 6.00 to 7.00 | COCCn1cc([C@H]2C[C@H](C)CN(c3nccc(-c4cnc5ccc(C(F)(F)F)cn45)n3)C2)cn1 [I-144, 3-(2-((3R,5S)-3-(1-(2-methoxyethyl)-1H-pyrazol-4-yl)-5-methylpiperidin-1-yl)pyrimidin-4-yl)-6-(trifluoromethyl)imidazo[1,2-a]pyridine] |
| – | > 6.30 | > 8.00 | NC(=O)[C@H]1C[C@H](O)CN(c2nccc(-c3cnc4ccc(Cl)cn34)n2)C1 [I-316, (3 S,5S)-1-(4-(6-chloroimidazo[1,2-a]pyridin-3-yl)pyrimidin-2-yl)-5-hydroxypiperidine-3-carboxamide] |
| – | > 6.30 | 7.00 to 8.00 | Cc1[nH]ncc1C1N[C@@H](C)CN(c2nccc(-c3cnc4ccc(C(F)(F)F)cn34)n2)[C@H]1C (stereo partly drawn) [I-172, 3-(2-((2S,5S)-2,5-dimethyl-3-(5-methyl-1H-pyrazol-4-yl)piperazin-1-yl)pyrimidin-4-yl)-6-(trifluoromethyl)imidazo[1,2-a]pyridine] |
| – | 5.30 to 6.30 | 7.00 to 8.00 | CC1(C)CN(c2ccnc(-c3cnc4ccc(C(F)(F)F)cn34)n2)CCN1S(C)(=O)=O [I-339, 3-(4-(3,3-dimethyl-4-(methylsulfonyl)piperazin-1-yl)pyrimidin-2-yl)-6-(trifluoromethyl)imidazo[1,2-a]pyridine] |
| – | 5.30 to 6.30 | 7.00 to 8.00 | O=C1NC[C@@]12CCCN(c1ccnc(-c3cnc4ccc(C(F)(F)F)cn34)n1)C2 [I-295, (R)-6-(2-(6-(trifluoromethyl)imidazo[1,2-a]pyridin-3-yl)pyrimidin-4-yl)-2,6-diazaspiro[3.5]nonan-1-one] |
| – | > 6.30 | > 8.00 | C[C@@H]1[C@H](c2cn[nH]c2)N(C2COC2)CCN1c1ccnc(-c2cnc3ccc(C(F)(F)F)cn23)n1 [I-362, 4-[(2R,3 S)-2-methyl-4-(oxetan-3-yl)-3-(1H-pyrazol-4-yl)piperazin-1-yl]-2-[6-(trifluoromethyl)imidazo[1,2-a]pyridin-3-yl]pyrimidine] |
| – | 5.30 to 6.30 | 7.00 to 8.00 | NC(=O)C1(C2CCCN(c3ccnc(-c4cnc5ccc(Cl)cn45)n3)C2)CC1 (centres unmarked) [I-303, 1-(1-(2-(6-chloroimidazo[1,2-a]pyridin-3-yl)pyrimidin-4-yl)piperidin-3-yl)cyclopropane-1-carboxamide] |
| – | 5.30 to 6.30 | 7.00 to 8.00 | C[C@H]1[C@@H](c2cn[nH]c2)N(C2COC2)CCN1c1ccnc(-c2cnc3ccc(C(F)(F)F)cn23)n1 [I-361, 3-(4-((2S,3R)-2-methyl-4-(oxetan-3-yl)-3-(1H-pyrazol-4-yl)piperazin-1-yl)pyrimidin-2-yl)-6-(trifluoromethyl)imidazo[1,2-a]pyridine] |
